A short description of data set [1]: CC50 MT4 cytotoxicity (Cell-Titer Glo). The format is cell-based. Conditions: human. Summed up: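 CC50 values are the concentrations cutting viability by 50%, fitted by non-linear regression against untreated (100%) and 2 μM puromycin (0%) controls. Cell-Titer Glo luminescence measured after 4-5 days at 37° C exposure of uninfected MT-4 and HEp-2 cells to 3-fold dilutions spanning 15 nM to 100,000 nM.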

Data set [2] relates to Respiratory syncytial virus recombinant with luciferase (RSV-Luc5) in Normal Human Bronchial Epithelial (NHBE) cells. As to the kind of experiment: microbe, parasite or virus in culture. The format is cell-based.
For data set [3], the system named is SARS Coronavirus 2 recombinant with NanoLuc (SARS-CoV2-NLuc) in A549-hACE2 cells. Put plainly: microbe, parasite or virus in culture. The format is cell-based.
Data set [4] can be described thus: GI S9 stability - no PMSF. The format is in vitro ADME. Conditions: pH 7.4; human intestinal S9, PMSF-free; read-out: GIS9-HUMAN-NoPMSF T1/2. Summed up:
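Stability was assessed by Q-Exactive LC-MS peak area ratios against internal standard, tracking loss of parent and appearance of nucleoside metabolite Reference Compound A. Incubations used 2 μM compound in 1 mg/mL intestinal S9 without PMSF (PBS, pH 7.4), with six samples taken over 120 min.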

In data set [5] the test system is Respiratory syncytial virus recombinant with luciferase (RSV-Luc5) in HEp-2 cells. As to the kind of experiment: microbe, parasite or virus in culture. It counts as cell-based. Conditions: human respiratory syncytial virus, HEp-2, 72 h, read-out: RSV Hep2 EC50.
The next data set is described as follows: Plasma stability. The format is in vitro ADME. Also noted: unit not given here. As to conditions: 37° C., 2 μM substrate. Summed up:
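LC-MS (Q-Exactive, 5 ppm tolerance, 0.1% formic acid water/acetonitrile gradient) quantified compound in quenched aliquots. Aliquots were taken at 0.05, 0.5, 1, 2, 3 and 4 hr and quenched with internal-standard solution, and supernatants were diluted with water after centrifugation.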

The nature of data set [6]: Stability in pH2 buffered solution. It counts as physicochemical. The method, then:
Example N: Stability in p112 and p117 Buffered Solutions
The aqueous stability of compounds over a time of 24 hours at 40° C. was assessed. Stability was determined in 50 mM phosphate buffered solutions at both pH2 and pH7, with 150 mM NaCl (to achieve isotonicity). 3-5 mg of solid compounds were added to 7 mL scintillation vials. Acetonitrile was added to each vial to produce a 1 mg/mL stock solution. Stock solutions were diluted to 50 μg/mL in either pH2 or pH7 phosphate buffer, to a volume of 1 mL. For each compound and pH condition, 50 μg/mL samples were prepped in duplicate. One sample was placed on the UPLC tray at 40° C. for analysis, and the second sample was placed in a 40° C. oven for storage. Sample preps for each compound were offset by 40 minutes to account for run time on UPLC.
Concentration timepoints were measured at 0, 3, 6, 9, and 12 hrs. After 24 hrs, samples in the 40° C. oven were removed and analyzed by UPLC.
In FIG. 2, % AN stands for % area normalized. That is, % AN is the area of the compound peak relative to the sum of areas of all the peaks in the UPLC chromatogram. For example, if there were two peaks, compound peak with an area of 9 and another peak with an area of 1, then the % AN of the compound peak would be 90%.

Data set [7] concerns Caco-2 cells (clone C2BBe1). Put plainly: CACO-2 permeability. It counts as in vitro ADME. Set-up: unit not given here. Conditions: for DM Caco2 A to B: apical to basolateral, donor pH 6.5, receiver pH 7.4; for DM Caco2 B to A: basolateral to apical. Summed up:
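A-to-B and B-to-A flux measured by LC-MS/MS from receiver samples taken at 1 and 2 h, with donor sampled at 0 and 2 h and recovery checked. Buffers: pH 6.5 HBSS with 200 μM BNPP on the donor side, pH 7.4 with BSA on the receiver side. Monolayers were 21-day cultures, TEER-verified, in duplicate wells.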
On the technique in general: Caco-2 monolayers are a common model of the intestinal barrier.

Where [8] appears, read: read-out: EC50 RSVFluc-NHBE 384 V2.
Setting [9] is: A549, read-out: EC50 SARS CoV2 NanoLuc A549 384.

Read-outs that look alike come from different tables or passages of the source.

In general, CC50 refers to the concentration giving 50% cytotoxicity. The EC50 is the concentration at which the effect is half-maximal. By logD is commonly meant the decadic logarithm of the distribution of all forms, ionised or not, between an organic phase and buffer at a given pH. In data set [1], `CC(C)OC(=O)[C@H](COC(=O)OC[C@H]1O[C@@](C#N)(c2ccc3c(N)ncnn23)[C@H](O)[C@@H]1O)N(C)C` [Compound 151, isopropyl O-((((2R,3S,4R,5R)-5-(4-aminopyrrolo[2,1-f][1,2,4]triazin-7-yl)-5-cyano-3,4-dihydroxytetrahydrofuran-2-yl)methoxy)carbonyl)-N,N-dimethyl-L-serinate] displayed a CC50 of over 50000 nM. In addition, the EC50 in data set [2] (setting [8]) amounted to 2890 nM; in [3] (setting [9]) it was 2760 nM. Further, the logD in the data set “physchem” is 1.3.
The matching figures for `CC(C)(C)OC(=O)C(C)(C)OC(=O)OC[C@H]1O[C@@](C#N)(c2ccc3c(N)ncnn23)[C@H](O)[C@@H]1O` [Compound 138, tert-butyl 2-[[(2R,3S,4R,5R)-5-(4-aminopyrrolo[2,1-f][1,2,4]triazin-7-yl)-5-cyano-3,4-dihydroxy-tetrahydrofuran-2-yl]methoxycarbonyloxy]-2-methyl-propanoate]: over 50000 nM, over 50000 nM, 21200 nM and 2.
In turn, `CC(C)OC(=O)OC[C@H]1O[C@@](C#N)(c2ccc3c(NC(=O)C(C)C)ncnn23)[C@H](OC(=O)C(C)C)[C@@H]1OC(=O)C(C)C` [Compound 75, (2R,3R,4R,5R)-2-cyano-2-(4-isobutyramidopyrrolo[2,1-f][1,2,4]triazin-7-yl)-5-(((isopropoxycarbonyl)oxy)methyl)tetrahydrofuran-3,4-diyl bis(2-methylpropanoate)] showed a CC50 in data set [1] of over 50000 nM. Moreover, the half-life at 2 µM in [4] came out at 0.884 min. The EC50 in [5] stood at 1030 nM; in [2] (72 h, read-out: RSV NHBE EC50), 321 nM; in data set [3] (48 h, read-out: SARS-CoV2 EC50), 5060 nM. Further, the “STA Human Plasma 37” value in the data set “Plasma stability” was 277.1. Besides, in data set [6] (pH2 phosphate buffer, 40° C., 24 h, Table N2), the “pH 2 Stability 24 h % AN” value is listed as 0 % AN.
Regarding `CC1(C)C2CCC1(C)C(OC(=O)OC[C@H]1O[C@@](C#N)(c3ccc4c(N)ncnn34)[C@H](O)[C@@H]1O)C2` (stereo partly drawn) [Compound 71, ((2R,3S,4R,5R)-5-(4-aminopyrrolo[2,1-f][1,2,4]triazin-7-yl)-5-cyano-3,4-dihydroxytetrahydrofuran-2-yl)methyl (1,7,7-trimethylbicyclo[2.2.1]heptan-2-yl) carbonate], the “DM Caco2 A to B” value in [7] is 4.02. Also, the “DM Caco2 B to A” value in [7] is reported as 13.65. The compound further showed a CC50 in [1] of 47800 nM. Also, the half-life at 2 µM in [4] was 25.8 min. Further, the EC50 in data set [5] is 3010 nM; in data set [2] (72 h, read-out: RSV NHBE EC50) it was 532 nM; in data set [3] (48 h, read-out: SARS-CoV2 EC50), 7820 nM. Also, in “Plasma stability”, the “STA Human Plasma 37” value came to 1584.
Consider `CC(C)C(=O)OC[C@H]1O[C@@](C#N)(c2ccc3c(N)ncnn23)[C@H](OC(=O)C(C)C)[C@@H]1OC(=O)C(C)C` [2nd Ester Reference Compound], for which the “Stability at pH2, 0 hr” value in [6] (0 h, 50 µg/mL, pH 2) turned out to be 100.0 % AN. The “Stability at pH2, 3 hr” value in data set [6] (3 h, 50 µg/mL, pH 2) is 100.0 % AN. Moreover, the “Stability at pH2, 6 hr” value in [6] (6 h, 50 µg/mL, pH 2) is recorded as 100.0 % AN. Besides, in data set [6] (9 h, 50 µg/mL, pH 2), the “Stability at pH2, 9 hr” value stood at 98.3 % AN. Also, the “Stability at pH2, 12 hr” value in [6] (12 h, 50 µg/mL, pH 2) is listed as 97.7 % AN. Moreover, the “Stability at pH2, 24 hr” value in [6] (24 h, 50 µg/mL, pH 2) is listed as 96.2 % AN.
`N#C[C@@]1(c2ccc3c(N)ncnn23)O[C@H](COC(=O)OCCN2CCOCC2)[C@@H](O)[C@H]1O` [Compound 92, ((2R,3S,4R,5R)-5-(4-aminopyrrolo[2,1-f][1,2,4]triazin-7-yl)-5-cyano-3,4-dihydroxytetrahydrofuran-2-yl)methyl (2-morpholinoethyl) carbonate]: in data set [7], the “DM Caco2 A to B” value is 0.07. Also, the “DM Caco2 B to A” value in [7] was determined as 0.48. In data set [1], the CC50 was over 50000 nM. Moreover, in [4], the half-life at 2 µM amounted to 238 min. In addition, the EC50 in data set [5] was 1800 nM; in [2] (72 h, read-out: RSV NHBE EC50) it was 3040 nM; in [3] (48 h, read-out: SARS-CoV2 EC50) it was 5630 nM. Further, the “STA Human Plasma 37” value in “Plasma stability” is reported as 139.9.
Consider `N#C[C@@]1(c2ccc3c(N)ncnn23)O[C@H](COC(=O)OC2CC(F)(F)C2)[C@@H](O)[C@H]1O` [Compound 73, ((2R,3S,4R,5R)-5-(4-aminopyrrolo[2,1-f][1,2,4]triazin-7-yl)-5-cyano-3,4-dihydroxytetrahydrofuran-2-yl)methyl (3,3-difluorocyclobutyl) carbonate], for which the “DM Caco2 A to B” value in data set [7] was determined as 0.48. The “DM Caco2 B to A” value in data set [7] is listed as 4.69. The CC50 in [1] is over 50000 nM. For the same compound, the half-life at 2 µM in data set [4] is 0.588 min. Further, the EC50 was determined as 206 nM in [5]; 1100 nM in data set [2] (72 h, read-out: RSV NHBE EC50); 1900 nM in [3] (48 h, read-out: SARS-CoV2 EC50). Moreover, the “STA Human Plasma 37” value in “Plasma stability” is recorded as 70.
Take `N#C[C@@]1(c2ccc3c(N)ncnn23)O[C@H](COC(=O)OC(CF)CF)[C@@H](O)[C@H]1O` [Compound 94, ((2R,3S,4R,5R)-5-(4-aminopyrrolo[2,1-f][1,2,4]triazin-7-yl)-5-cyano-3,4-dihydroxytetrahydrofuran-2-yl)methyl (1,3-difluoropropan-2-yl) carbonate]: in [7], the “DM Caco2 A to B” value was 0.13. Besides, the “DM Caco2 B to A” value in data set [7] is listed as 2.19. The same compound showed a CC50 in [1] of over 50000 nM. Further, in [4], the half-life at 2 µM came out at 1.13 min. In addition, the EC50 was 1020 nM in [5]; 923 nM in data set [2] (72 h, read-out: RSV NHBE EC50); 3630 nM in data set [3] (48 h, read-out: SARS-CoV2 EC50). In the data set “Plasma stability”, the “STA Human Plasma 37” value worked out at 105.4.
`N#C[C@@]1(c2ccc3c(N)ncnn23)O[C@H](COC(=O)OCC23CCC(CC2)C3)[C@@H](O)[C@H]1O` [Compound 52, ((2R,3S,4R,5R)-5-(4-aminopyrrolo[2,1-f][1,2,4]triazin-7-yl)-5-cyano-3,4-dihydroxytetrahydrofuran-2-yl)methyl (bicyclo[2.2.1]heptan-1-ylmethyl) carbonate]: the “DM Caco2 A to B” value in [7] turned out to be 6.95. For the same compound, in [7], the “DM Caco2 B to A” value is on record as 13.04. Further, the CC50 in data set [1] was 38800 nM. The half-life at 2 µM in data set [4] was determined as 0.655 min. Also, the EC50 in data set [5] amounted to 100 nM; in data set [2] (72 h, read-out: RSV NHBE EC50), 919 nM; in data set [3] (48 h, read-out: SARS-CoV2 EC50), 574 nM. In the data set “Plasma stability”, the “STA Human Plasma 37” value came out at 85.
Regarding `C[C@@H](OC(=O)OC[C@H]1O[C@@](C#N)(c2ccc3c(N)ncnn23)[C@H](O)[C@@H]1O)c1ccccc1` [Compound 87, ((2R,3S,4R,5R)-5-(4-aminopyrrolo[2,1-f][1,2,4]triazin-7-yl)-5-cyano-3,4-dihydroxytetrahydrofuran-2-yl)methyl ((R)-1-phenylethyl) carbonate], in data set [7], the “DM Caco2 A to B” value amounted to 1.79. Besides, in [7], the “DM Caco2 B to A” value was 10.98. Besides, the CC50 in data set [1] is over 50000 nM. Also, in data set [4], the half-life at 2 µM was 1.25 min. Also, the EC50 was found to be 345 nM in [5]; 559 nM in [2] (72 h, read-out: RSV NHBE EC50); 1050 nM in data set [3] (48 h, read-out: SARS-CoV2 EC50). In addition, the “STA Human Plasma 37” value in “Plasma stability” is given as 28.7.
As to `N#C[C@@]1(c2ccc3c(N)ncnn23)O[C@H](COC(=O)OC2CC3(CCC3)C2)[C@@H](O)[C@H]1O` [Compound 29, ((2R,3S,4R,5R)-5-(4-aminopyrrolo[2,1-f][1,2,4]triazin-7-yl)-5-cyano-3,4-dihydroxytetrahydrofuran-2-yl)methyl spiro[3.3]heptan-2-yl carbonate], the “DM Caco2 A to B” value in data set [7] is reported as 1.91. The “DM Caco2 B to A” value in [7] was determined as 12.29. Besides, the CC50 in data set [1] is over 50000 nM. For the same compound, the half-life at 2 µM in [4] worked out at 0.617 min. The EC50 in [5] came to 109 nM; in data set [2] (72 h, read-out: RSV NHBE EC50) it was 1300 nM; in data set [3] (48 h, read-out: SARS-CoV2 EC50) it was 835 nM. Also, the “STA Human Plasma 37” value in the data set “Plasma stability” is 139.

For the origin of these results see patent US12448383B2, “Compounds and methods for treatment of viral infections” (priority 2022, dated 2025).
